Activity calls are given as the source filed them. The rule behind the calls is not given here.
system: Rattus norvegicus; test: Antiinflammatory activity in po dosed Wistar rat assessed as inhibition of carrageenan-induced paw edema administered 1 hr prior to carrageenan challenge measured after 3 hrs of carrageenan challenge; assay type: functional; conditions: not given

Row | SMILES | inhibition | ED50
1 | O=C(O)CCCc1ccc(OCc2ccccc2C(=O)O)cc1 | inactive | 
2 | O=C(O)CCCCCc1ccc(OCc2ccccc2C(=O)O)cc1 | inactive | 
3 | O=C(O)CCCc1ccc2c(c1)C(=O)c1ccccc1CO2 |  | 10.1 mg/kg
4 | O=C(O)CCCCCCCc1ccc(OCc2ccccc2C(=O)O)cc1 | inactive | 
5 | O=C(O)CCCCCc1ccc2c(c1)C(=O)c1ccccc1CO2 |  | 18.2 mg/kg
6 | O=C(O)CCc1ccc(OCc2ccccc2C(=O)O)cc1 | inactive | 
7 | O=C(O)Cc1ccc2c(c1)C(=O)c1ccccc1CO2 [ISOXEPAC] |  | 6.4 mg/kg
8 | COc1ccc2c(c1)c(CC(=O)O)c(C)n2C(=O)c1ccc(Cl)cc1 [INDOMETHACIN] |  | 4.4 mg/kg
9 | O=C(O)CCCCCCCc1ccc2c(c1)C(=O)c1ccccc1CO2 |  | 11.7 mg/kg

system: Rattus norvegicus; test: Induction of carrageenan-induced paw edema in Wistar rat administered 1 hr prior to carrageenan challenge measured at 50 mg/kg, po after 3 hrs of carrageenan challenge relative to vehicle-treated control; assay type: organism-based; parameters: dose 50 mg/kg, route oral; conditions: in vivo

Row | SMILES | Activity
10 | O=C(O)CCc1ccc2c(c1)C(=O)c1ccccc1CO2 | 11%

system: Rattus norvegicus; test: Antiinflammatory activity in Wistar rat assessed as inhibition of carrageenan-induced paw edema administered 1 hr prior to carrageenan challenge measured at 25 mg/kg, po after 3 hrs of carrageenan challenge relative to vehicle-treated control; assay type: functional; conditions: not given

Row | SMILES | inhibition in vivo at 25 mg/kg
11 | CC(C)OC(=O)CCCc1ccc2c(c1)C(=O)c1ccccc1CO2 | 43.7%
12 | COC(=O)CCCc1ccc2c(c1)C(=O)c1ccccc1CO2 | 31.7%

Reference: ChEMBL document CHEMBL3272004, “Dibenz[b,e]oxepinalkanoic acids as nonsteroidal antiinflammatory agents. 3. omega-(6,11-Dihydro-11-oxodibenz[b,e]oxepin-2-yl)alkanoic acids” (J Med Chem, 1977)
